In ChEMBL document CHEMBL1201862, “PubChem BioAssay data set” (2004):
The source made the active and inactive calls.

Experiments:
[1] = molecular target: T1, Coagulation factor XII (Homo sapiens, UniProt P00748); assay type: functional;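 also: activated factor XIIa alpha cleaving a fluorogenic AMC peptide substrate; inhibitor potency from loss of enzyme activity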
T1 sequence (P00748 whole entry): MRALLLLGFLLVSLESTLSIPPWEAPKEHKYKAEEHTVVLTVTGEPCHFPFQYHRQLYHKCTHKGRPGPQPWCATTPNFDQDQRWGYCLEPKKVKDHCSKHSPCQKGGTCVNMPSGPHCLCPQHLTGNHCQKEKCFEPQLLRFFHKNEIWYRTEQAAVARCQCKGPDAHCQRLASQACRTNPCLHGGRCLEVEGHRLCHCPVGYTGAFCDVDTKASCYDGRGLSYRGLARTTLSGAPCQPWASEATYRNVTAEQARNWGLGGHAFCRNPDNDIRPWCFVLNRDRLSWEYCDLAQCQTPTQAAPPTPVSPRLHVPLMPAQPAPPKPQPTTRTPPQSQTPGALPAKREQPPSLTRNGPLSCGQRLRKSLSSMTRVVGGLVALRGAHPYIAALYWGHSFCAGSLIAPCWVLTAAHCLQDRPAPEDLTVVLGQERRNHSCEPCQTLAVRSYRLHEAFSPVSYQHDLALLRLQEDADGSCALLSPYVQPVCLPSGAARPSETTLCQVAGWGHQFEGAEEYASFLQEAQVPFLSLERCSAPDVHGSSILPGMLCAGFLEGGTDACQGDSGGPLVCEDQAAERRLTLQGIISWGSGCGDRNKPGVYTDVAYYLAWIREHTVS

[2] = molecular target: Nucleotide-binding oligomerization domain-containing protein 2 (Homo sapiens, UniProt Q9HC29); test: NOD2 signaling inhibitors, cell-based, luminescence, uHTS, HEK293 (AID 1566); assay type: functional
[3] = cytotoxicity toward DRD oncogenic fibroblasts, dose response, cell-based, non-viral oncogenic, luminescence (AID 1934); assay type: functional; settings: Homo sapiens
[4] = test system: BJ; test: cytotoxicity toward BJ-TERT fibroblasts, dose response, cell-based, RAS-independent, luminescence (AID 1933); assay type: functional; settings: Homo sapiens
[5] = test system: HEK293; test: NOD1 signaling inhibitors, primary screen, cell-based, luminescence, uHTS (AID 1578); assay type: functional; settings: Homo sapiens
[6] = test system: HEK293; test: cells; assay type: functional, cell-based; settings: Homo sapiens
[7] = test system: HEK293; test: cells; assay type: functional, cell-based; settings: Homo sapiens; remark: listed apart in the source
[8] = test system: BJ; test: cells; assay type: functional, cell-based; settings: Homo sapiens
[9] = test system: HEK293; test: cells; assay type: functional, cell-based; settings: Homo sapiens; remark: listed apart in the source
[10] = test system: HEK293; test: NOD2 signaling inhibitors in MDP-stimulated cells, cell-based, uHTS, luminescence (AID 2001); assay type: functional; settings: Homo sapiens
[11] = test system: BJ; test: cytotoxicity toward BJ-TERT-LT-ST fibroblasts, dose response, cell-based, RAS-independent, luminescence (AID 1935); assay type: functional; settings: Homo sapiens;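 also: BJ fibroblasts immortalized with TERT plus LT and ST oncogenes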
[12] = test system: INS1; test: beta cell apoptosis inhibitors, cytokine rescue, dose response, luminescence, retest (AID 449756); assay type: functional, cell-based; settings: Rattus norvegicus;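 also: cell death triggered by IL-1 beta plus TNF-alpha plus IFN-gamma mixture; protective hits raise ATP signal compared with cytokine alone wells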
[13] = molecular target: Glucose-6-phosphate 1-dehydrogenase (Homo sapiens, UniProt P11413); test: human G6PD enzyme inhibitors, dose response, selectivity assay for P. falciparum G6PD inhibitor project, biochemical, fluorescence (AID 504792); assay type: functional
[14] = molecular target: T2, Short transient receptor potential channel 4 (Mus musculus, UniProt Q9QUQ5); test: mouse TRPC4 channel activators, dose response, cell-based, HEK293 TRPC4/mu-opioid, Fluo-4 calcium (AID 434937); assay type: functional
T2 sequence (Q9QUQ5 whole entry): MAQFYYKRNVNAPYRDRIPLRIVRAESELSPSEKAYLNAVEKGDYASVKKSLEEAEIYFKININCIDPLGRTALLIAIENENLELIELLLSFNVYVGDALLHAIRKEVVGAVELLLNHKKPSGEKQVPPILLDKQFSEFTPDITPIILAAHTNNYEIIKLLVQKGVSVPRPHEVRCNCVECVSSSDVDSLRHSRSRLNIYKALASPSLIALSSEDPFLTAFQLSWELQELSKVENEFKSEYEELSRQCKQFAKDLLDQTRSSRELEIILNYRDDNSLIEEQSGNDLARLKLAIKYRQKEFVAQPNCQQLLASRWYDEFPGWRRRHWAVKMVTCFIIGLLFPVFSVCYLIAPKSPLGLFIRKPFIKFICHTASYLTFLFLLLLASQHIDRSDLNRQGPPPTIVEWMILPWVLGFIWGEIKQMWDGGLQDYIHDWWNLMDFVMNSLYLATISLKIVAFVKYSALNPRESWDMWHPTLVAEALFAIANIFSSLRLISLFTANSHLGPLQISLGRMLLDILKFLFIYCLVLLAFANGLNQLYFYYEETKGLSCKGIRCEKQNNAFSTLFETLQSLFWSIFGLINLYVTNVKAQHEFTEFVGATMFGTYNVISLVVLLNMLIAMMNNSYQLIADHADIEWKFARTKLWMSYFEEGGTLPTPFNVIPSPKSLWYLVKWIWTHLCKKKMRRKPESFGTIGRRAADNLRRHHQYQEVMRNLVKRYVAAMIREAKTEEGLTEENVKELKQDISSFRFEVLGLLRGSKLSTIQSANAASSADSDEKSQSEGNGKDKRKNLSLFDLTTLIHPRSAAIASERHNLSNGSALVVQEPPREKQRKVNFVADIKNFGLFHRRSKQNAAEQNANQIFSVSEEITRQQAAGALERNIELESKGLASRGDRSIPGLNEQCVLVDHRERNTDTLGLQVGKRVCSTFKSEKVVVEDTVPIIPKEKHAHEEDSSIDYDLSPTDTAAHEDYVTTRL

[15] = molecular target: Trypsin (Sus scrofa, UniProt P00761); test: porcine trypsin inhibitors, dose response, selectivity assay for Rce1 protease inhibitor project, biochemical, quenched peptide fluorescence, cherry-pick (AID 488789)
[16] = molecular target: T3, CAAX prenyl protease 2 (Saccharomyces cerevisiae S288c, UniProt Q03530); assay type: biochemical
T3 sequence (Q03530 whole entry): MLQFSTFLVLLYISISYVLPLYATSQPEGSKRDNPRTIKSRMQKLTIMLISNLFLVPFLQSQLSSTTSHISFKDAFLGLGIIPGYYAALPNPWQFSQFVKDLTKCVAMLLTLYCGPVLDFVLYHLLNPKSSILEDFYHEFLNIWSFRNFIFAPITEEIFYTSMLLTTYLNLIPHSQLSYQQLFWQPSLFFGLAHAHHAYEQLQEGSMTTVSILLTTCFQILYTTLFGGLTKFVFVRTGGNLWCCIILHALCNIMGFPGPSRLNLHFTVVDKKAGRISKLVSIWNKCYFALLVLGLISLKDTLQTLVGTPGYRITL

[17] = molecular target: T4, CAAX prenyl protease 2 (Homo sapiens, UniProt Q9Y256); test: human Rce1 protease inhibitors, dose response, biochemical, yeast membranes, quenched-peptide fluorescence, cherry-pick (AID 588849)
T4 sequence (Q9Y256 whole entry): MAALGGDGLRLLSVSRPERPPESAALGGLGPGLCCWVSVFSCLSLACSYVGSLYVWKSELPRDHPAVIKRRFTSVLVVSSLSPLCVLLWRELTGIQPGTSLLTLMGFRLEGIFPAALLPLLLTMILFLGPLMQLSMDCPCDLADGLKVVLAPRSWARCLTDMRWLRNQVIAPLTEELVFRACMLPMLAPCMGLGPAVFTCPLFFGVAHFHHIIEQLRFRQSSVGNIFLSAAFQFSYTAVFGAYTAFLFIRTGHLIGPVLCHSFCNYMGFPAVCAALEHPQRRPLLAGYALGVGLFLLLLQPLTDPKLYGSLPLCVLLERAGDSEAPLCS

[18] = Luminescence Cell-Based Dose Response HTS to Identify Activators of Luciferase Translation or Activity in H4 […] Cells. [Related pubchem assays: 1829 (Project Summary), 1814 (Primary HTS)]; assay type: functional
[19] = test system: H4; test: Luminescence Cell-Based Dose Response HTS to Identify Activators of 5'UTR Stem-Loop Driven Prion Protein mRNA Translation in H4 Neuroglioblastoma Cells. [Related pubchem assays: 1829 (Project Summary), 1814 (Primary HTS)]; assay type: functional; settings: Homo sapiens
[20] = test system: HeLa; test: HeLa cell cytotoxicity, dose response, cytotoxicity control for MITF activator project, CellTiter-Glo luminescence, cherry-pick samples (AID 540259); assay type: functional, cell-based; settings: Homo sapiens
[21] = molecular target: Tumor necrosis factor (Homo sapiens, UniProt P01375); test: TNFa-triggered NF-kB activation inhibitors, SAR follow-up, cell-based, revised (AID 2337); assay type: functional
[22] = molecular target: T5, Nucleotide-binding oligomerization domain-containing protein 1 (Homo sapiens, UniProt Q9Y239); test: NOD1 signaling inhibitors, SAR follow-up, revised (AID 2333); assay type: functional
T5 sequence (Q9Y239 whole entry): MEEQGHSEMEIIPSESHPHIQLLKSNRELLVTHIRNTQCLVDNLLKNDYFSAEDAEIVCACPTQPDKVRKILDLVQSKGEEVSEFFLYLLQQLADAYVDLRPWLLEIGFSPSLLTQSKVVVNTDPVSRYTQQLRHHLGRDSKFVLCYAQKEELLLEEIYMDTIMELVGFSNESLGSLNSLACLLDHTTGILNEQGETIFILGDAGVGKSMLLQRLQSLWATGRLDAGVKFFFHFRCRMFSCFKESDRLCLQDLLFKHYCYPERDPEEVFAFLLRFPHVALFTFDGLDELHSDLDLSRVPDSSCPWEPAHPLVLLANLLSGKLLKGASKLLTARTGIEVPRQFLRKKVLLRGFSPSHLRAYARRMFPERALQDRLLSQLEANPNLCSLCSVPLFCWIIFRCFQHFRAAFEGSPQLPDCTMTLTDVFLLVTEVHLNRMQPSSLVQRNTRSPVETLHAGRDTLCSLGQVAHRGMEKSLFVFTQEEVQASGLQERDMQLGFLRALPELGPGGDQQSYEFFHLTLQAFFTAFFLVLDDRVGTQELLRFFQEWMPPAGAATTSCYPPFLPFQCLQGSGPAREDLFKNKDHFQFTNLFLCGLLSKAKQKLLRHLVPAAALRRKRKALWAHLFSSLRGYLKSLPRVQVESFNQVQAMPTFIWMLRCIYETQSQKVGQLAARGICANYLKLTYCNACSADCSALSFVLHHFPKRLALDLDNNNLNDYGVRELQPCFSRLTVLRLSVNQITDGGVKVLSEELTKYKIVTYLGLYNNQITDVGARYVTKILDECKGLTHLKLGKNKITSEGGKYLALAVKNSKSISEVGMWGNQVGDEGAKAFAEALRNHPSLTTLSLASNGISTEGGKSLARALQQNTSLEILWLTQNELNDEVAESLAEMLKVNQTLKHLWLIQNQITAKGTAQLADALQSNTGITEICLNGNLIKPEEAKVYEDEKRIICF

[23] = test system: HEK293; test: cells; settings: Homo sapiens
[24] = cytotoxicity in HEK-293T cells, dose response, cytotoxicity control for TCR NF-kB inhibitor project, luminescence, T-cell screen hits (AID 489026); assay type: functional, cell-based;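 also: cells exposed to compound about 14 hours before the viability readout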

Sequence of Glucose-6-phosphate 1-dehydrogenase (P11413 whole entry): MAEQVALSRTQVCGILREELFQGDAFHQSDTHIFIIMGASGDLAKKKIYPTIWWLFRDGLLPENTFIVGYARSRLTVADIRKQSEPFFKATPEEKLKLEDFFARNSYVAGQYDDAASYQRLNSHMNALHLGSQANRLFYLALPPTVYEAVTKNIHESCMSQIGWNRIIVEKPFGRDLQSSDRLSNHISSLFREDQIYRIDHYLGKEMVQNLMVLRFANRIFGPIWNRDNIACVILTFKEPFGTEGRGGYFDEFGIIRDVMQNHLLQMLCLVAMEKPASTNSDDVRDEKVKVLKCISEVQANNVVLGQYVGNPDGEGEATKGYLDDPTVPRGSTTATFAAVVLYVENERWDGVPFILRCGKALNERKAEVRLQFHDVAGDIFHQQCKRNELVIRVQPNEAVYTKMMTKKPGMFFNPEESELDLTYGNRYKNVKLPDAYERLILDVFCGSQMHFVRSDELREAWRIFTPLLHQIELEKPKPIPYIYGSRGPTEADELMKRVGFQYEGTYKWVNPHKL
Sequence of Nucleotide-binding oligomerization domain-containing protein 2 (Q9HC29 whole entry, the tested form may be a part): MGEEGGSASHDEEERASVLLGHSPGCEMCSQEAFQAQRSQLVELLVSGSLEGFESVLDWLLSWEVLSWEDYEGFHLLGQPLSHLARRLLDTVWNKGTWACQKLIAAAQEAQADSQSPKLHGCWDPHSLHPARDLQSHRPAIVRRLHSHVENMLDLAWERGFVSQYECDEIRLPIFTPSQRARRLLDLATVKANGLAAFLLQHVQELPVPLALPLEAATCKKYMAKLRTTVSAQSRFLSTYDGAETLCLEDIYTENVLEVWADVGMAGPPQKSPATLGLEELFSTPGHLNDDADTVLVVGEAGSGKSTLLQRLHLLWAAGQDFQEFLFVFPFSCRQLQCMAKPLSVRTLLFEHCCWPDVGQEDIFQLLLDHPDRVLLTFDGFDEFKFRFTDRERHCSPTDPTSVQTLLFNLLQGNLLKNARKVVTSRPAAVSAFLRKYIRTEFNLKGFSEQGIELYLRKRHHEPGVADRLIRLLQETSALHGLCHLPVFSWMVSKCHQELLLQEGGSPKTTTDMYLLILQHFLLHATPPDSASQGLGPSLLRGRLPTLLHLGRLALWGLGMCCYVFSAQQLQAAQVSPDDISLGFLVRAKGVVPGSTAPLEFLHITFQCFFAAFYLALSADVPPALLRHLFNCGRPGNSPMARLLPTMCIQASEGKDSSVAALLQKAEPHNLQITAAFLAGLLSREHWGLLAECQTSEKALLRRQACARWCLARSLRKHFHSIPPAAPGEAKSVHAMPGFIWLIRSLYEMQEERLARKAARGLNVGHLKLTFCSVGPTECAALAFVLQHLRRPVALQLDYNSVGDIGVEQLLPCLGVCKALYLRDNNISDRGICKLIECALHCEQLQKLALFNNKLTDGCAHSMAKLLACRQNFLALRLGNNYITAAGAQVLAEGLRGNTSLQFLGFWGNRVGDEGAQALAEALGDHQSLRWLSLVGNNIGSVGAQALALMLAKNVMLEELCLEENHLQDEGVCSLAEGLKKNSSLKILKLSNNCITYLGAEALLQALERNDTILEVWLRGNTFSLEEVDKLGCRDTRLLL
Sequence of Trypsin (P00761 whole entry): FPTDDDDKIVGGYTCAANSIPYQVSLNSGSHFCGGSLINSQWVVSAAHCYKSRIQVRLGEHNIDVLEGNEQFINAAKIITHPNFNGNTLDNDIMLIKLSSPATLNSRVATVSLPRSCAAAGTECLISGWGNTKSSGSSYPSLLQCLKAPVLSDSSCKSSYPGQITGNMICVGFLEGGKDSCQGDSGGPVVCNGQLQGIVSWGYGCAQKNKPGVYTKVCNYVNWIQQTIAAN
Sequence of Tumor necrosis factor (P01375 whole entry, the tested form may be a part): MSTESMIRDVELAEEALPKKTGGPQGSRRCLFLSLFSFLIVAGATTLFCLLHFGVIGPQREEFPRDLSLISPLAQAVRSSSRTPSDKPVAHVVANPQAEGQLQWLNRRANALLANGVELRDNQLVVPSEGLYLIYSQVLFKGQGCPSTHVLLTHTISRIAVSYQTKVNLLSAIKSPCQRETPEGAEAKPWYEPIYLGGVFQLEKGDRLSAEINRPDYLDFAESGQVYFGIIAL

SMILES: C=CCn1c(SCC(=O)Nc2cccnc2Cl)nnc1-c1ccc(Cl)cc1
- IC50 [1]: > 50 µM (inactive)

SMILES: COc1cc(/C=C2\CC(C(C)(C)C)C/C(=C\c3cc(OC)c(OC)c(OC)c3)C2=O)cc(OC)c1OC (stereo not given)
- EC50 [2]: 8.66 µM (active)
- EC50 [3]: 4.23 µM (active)
- EC50 [4]: 4.94 µM (active)
- EC50 [5]: 5.25 µM (active)
- IC50 [6]: > 20 µM (inactive)
- IC50 [7]: 18.3 µM (active)
- EC50 [8]: 12 µM (inconclusive)
- IC50 [9]: 4.76 µM (active)
- IC50 [10]: 4.98 µM (active)
- EC50 [11]: 5.18 µM (inconclusive)
- AC50 [12]: 5.52 µM (active)

SMILES: Cc1cccc(C(=O)Nc2nnc(S(=O)(=O)N3CCCCCC3)s2)c1
- IC50 [13]: > 80 µM (inactive)

SMILES: CCc1cc(OCCN(C)C)ccc1Cl
- EC50 [14]: 0.267 µM (active)

SMILES: CC(C)OCCCNC(=O)c1c(N)n(CC2CCCO2)c2nc3ccccc3nc12 (stereo not given)
- AC50 [15]: 5.99 µM (active)
- AC50 [16]: 15 µM (active)
- AC50 [17]: 9.35 µM (active)

SMILES: CC(=O)Nc1ccc(S(=O)(=O)NCCNc2ccccc2[N+](=O)[O-])cc1
- IC50 [1]: > 50 µM (inactive)

SMILES: Cc1ncc(CN2CCCC(C(=O)c3ccc(C(C)(C)C)cc3)C2)s1 (stereo not given)
- IC50 [1]: > 50 µM (inactive)

SMILES: c1ccc(CSc2ccc(-c3ccc4c(c3)OCO4)nn2)cc1
- EC50 [18]: 4.69 µM (active)
- EC50 [19]: > 120 µM (not active)
- AC50 [20]: 112 µM (active)

SMILES: Cc1cccn2c(CNCCc3ccccn3)c(C(=O)N3CCOCC3)nc12
- EC50 [14]: 1.68 µM (active)

SMILES: Oc1ccc(-c2nccc(-c3ccccn3)n2)cc1
- AC50 [20]: 55.2 µM (active)

SMILES: O=C(COc1ccc2c(-c3ccccc3)cc(=O)oc2c1)Nc1cccnc1
- EC50 [2]: > 20 µM (inactive)
- IC50 [21]: 4.59 µM (active)
- IC50 [22]: 3.17 µM (active)
- EC50 [5]: 0.75 µM (active)
- IC50 [23]: > 20 µM (inactive)
- IC50 [6]: > 20 µM (inactive)
- IC50 [7]: 18.7 µM (active)
- IC50 [24]: > 80 µM (inactive)
- IC50 [9]: 2.21 µM (active)
- IC50 [10]: 10.8 µM (inactive)

SMILES: C=CCOc1c(Cl)cc(CNc2ccc(N(C)C)cc2)cc1OC
- IC50 [13]: > 80 µM (inactive)

SMILES: CCn1c(CN2CCN(Cc3ccc(C)cc3)C(CCO)C2)nc2ccccc21 (stereo not given)
- EC50 [14]: 0.668 µM (active)

SMILES: O=C(/C=C/c1cn(-c2ccccc2)nc1-c1cccs1)NCCN1CCOCC1
- AC50 [16]: 10.8 µM (active)
- AC50 [17]: > 100 µM (inactive)

SMILES: CC(=O)c1ccc(N2Cc3ccccc3/C2=N\C(=O)c2cccs2)cc1
- AC50 [20]: 76.6 µM (active)

SMILES: CCn1cc(CN2CCCC(C(=O)Nc3ccc(-c4nc5ccccc5[nH]4)cc3)C2)c(C)n1 (stereo not given)
- EC50 [14]: 0.267 µM (active)
